Our source for the IC50 values is patent US6034238A, “Heterocyclic compounds, their preparation and their use as leucocyte adhesion inhibitors and VLA-4-antagonists” (Hoechst Marion Roussel Deutschland GmbH, priority 1997, dated 2000).

For orientation: IC50 means the concentration needed to halve the response being measured.

The structures appear in SMILES notation.

In the test the target is T1, interaction between VCAM-1 and VLA-4 (Homo sapiens, UniProt P05556+P13612).
T1 construct: supplied in their natural form as surface molecules on human U937 cells; host or cells: U937 (human)
T1 sequence (P13612 34-1032): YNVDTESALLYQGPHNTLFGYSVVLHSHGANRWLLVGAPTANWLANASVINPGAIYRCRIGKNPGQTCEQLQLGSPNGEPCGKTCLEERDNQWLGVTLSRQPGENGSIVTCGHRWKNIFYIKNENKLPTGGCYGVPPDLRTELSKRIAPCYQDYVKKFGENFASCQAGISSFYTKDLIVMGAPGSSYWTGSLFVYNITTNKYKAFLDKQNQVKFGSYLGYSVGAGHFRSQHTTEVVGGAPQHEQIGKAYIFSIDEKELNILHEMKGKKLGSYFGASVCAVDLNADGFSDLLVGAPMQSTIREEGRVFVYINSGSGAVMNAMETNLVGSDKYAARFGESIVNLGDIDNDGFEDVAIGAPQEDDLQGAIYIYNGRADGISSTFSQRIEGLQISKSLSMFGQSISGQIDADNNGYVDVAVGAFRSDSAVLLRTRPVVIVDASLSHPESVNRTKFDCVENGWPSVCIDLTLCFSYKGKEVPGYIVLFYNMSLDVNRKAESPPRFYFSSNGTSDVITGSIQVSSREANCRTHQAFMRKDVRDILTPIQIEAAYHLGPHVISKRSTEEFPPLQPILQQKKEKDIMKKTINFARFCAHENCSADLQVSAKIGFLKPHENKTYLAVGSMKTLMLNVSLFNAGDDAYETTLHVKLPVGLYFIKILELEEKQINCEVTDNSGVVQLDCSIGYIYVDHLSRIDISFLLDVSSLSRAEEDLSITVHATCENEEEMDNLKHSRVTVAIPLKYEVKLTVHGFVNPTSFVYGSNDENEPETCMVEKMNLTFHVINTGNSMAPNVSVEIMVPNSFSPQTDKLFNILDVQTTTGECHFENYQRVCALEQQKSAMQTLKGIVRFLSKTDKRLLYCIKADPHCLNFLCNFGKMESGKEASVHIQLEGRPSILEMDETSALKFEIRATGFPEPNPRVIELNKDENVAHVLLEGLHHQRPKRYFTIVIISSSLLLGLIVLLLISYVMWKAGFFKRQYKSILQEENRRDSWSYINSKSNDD
T1 sequence (P05556 21-798): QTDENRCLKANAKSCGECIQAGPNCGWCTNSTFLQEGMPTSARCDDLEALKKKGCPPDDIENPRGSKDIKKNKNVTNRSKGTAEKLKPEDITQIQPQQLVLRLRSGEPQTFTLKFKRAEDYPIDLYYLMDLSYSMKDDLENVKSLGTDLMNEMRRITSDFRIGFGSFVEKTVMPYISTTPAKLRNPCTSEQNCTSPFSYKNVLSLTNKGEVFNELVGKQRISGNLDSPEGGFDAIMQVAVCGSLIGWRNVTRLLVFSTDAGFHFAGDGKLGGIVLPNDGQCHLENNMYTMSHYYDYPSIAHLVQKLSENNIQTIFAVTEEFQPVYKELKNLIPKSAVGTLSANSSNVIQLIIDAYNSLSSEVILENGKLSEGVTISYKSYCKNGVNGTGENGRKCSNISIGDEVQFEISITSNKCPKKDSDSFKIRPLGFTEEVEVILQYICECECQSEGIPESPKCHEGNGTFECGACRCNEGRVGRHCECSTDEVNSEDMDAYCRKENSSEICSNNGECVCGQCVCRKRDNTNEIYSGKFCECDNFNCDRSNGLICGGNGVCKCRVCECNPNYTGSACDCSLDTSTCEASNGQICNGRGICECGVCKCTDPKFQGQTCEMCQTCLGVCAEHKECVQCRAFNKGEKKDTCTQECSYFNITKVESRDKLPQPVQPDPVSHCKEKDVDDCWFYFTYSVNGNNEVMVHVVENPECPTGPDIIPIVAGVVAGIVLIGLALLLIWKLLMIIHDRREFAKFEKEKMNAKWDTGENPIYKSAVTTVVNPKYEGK
The test can be described thus: U937/VCAM-1 cell adhesion test (adhesion of U937 cells to hVCAM-1 (1-3)-IgG). It is filed as cell-based. The note with it: read-out: IC50 (50% inhibition of adhesion). From the text:
The test method used for the activity of the compounds of the formula I on the interaction between VCAM-1 and VLA-4 is an assay which is specific for this interaction. The cellular binding components, i.e., the VLA4 integrins, are supplied in their natural form as surface molecules on human U937 cells (ATCC CRL 1593), which belong to the leucocytes group. The specific binding components used are genetically engineered recombinant soluble fusion proteins, consisting of the extracytoplasmatic domain of human VCAM-1 and the constant region of a human immunoglobulin of the subclass IgG1.
Assay for the measurement of the adhesion of U937 cells (ATCC CRL 1593) to hVCAM-1 (1-3)-IgG
1. Preparation of human VCAM-1(1-3)-IgG and human CD4-IgG
A genetic construct for the expression of the extracellular domain of human VCAM-1, associated with the genetic sequence of the heavy chain of human immunoglobulin IgG1 (hinge, CH2 and CH3 regions), from Dr. Brian Seed, Massachusetts General Hospital, Boston, USA (cf. Damle and Aruffo, Proc. NatI. Acad. Sci. USA 1991, 88, 6403-6407) was employed. The soluble fusion protein hVCAM-1 (1-3)-IgG contained the three amino-terminal extracellular immunoglobulin-like domains of human VCAM-1 (Damle and Aruffo, Proc. Natl. Acad. Sci. USA 1991, 88, 6403). CD4-IgG (Zeftimeissl et al., DNA and Cell Biology 1990, 9, 347) served as a fusion protein for negative controls. The recombinant proteins were expressed as soluble proteins after DEAE/dextran-mediated DNA transfection in COS cells (ATCC CRL1651) according to standard procedures (Ausubel et al., Current Protocols in Molecular Biology, John Wiley & Sons, Inc., 1994).
2. Assay for the measurement of the adhesion of U937 cells to hVCAM-1 (1-3)-IgG
2.1 96-well microtiter test plates (Nunc Maxisorb) were incubated at room temperature for 1 hour with 100 μl/well of a goat-anti-human-IgG antibody solution (10 μg/ml in 50 mM tris, pH 9.5). After removal of the antibody solution, washing was carried out once with PBS.
2.2 150 μl/well of a blocking buffer (1% BSA in PBS) was incubated on the plates at room temperature for 0.5 hour. After removal of the blocking buffer, washing was carried out once with PBS.
2.3 100 μl per well of a cell culture supernatant of transfected COS cells was incubated on the plates at room temperature for 1.5 hours. The COS cells were transfected with a plasmid which codes for the three N-terminal immunoglobulin-like domains of VCAM-1, coupled to the Fc part of human IgG1 (hVCAM-1(1--3)-IgG). The content of hVCAM-1 (1-3)-IgG was about 0.5-1 μg/ml. After removal of the culture supernatant washing was carried out once with PBS. […]
With `CC1(c2ccc(C(=N)N)cc2)C(=O)N(CC(=O)NC[C@H](NC(=S)NCc2ccccc2)C(=O)O)C(=O)N1Cc1ccccc1` (stereo partly drawn) [Example 4, (S)-(((R,S)-4-(4-(Amino-imino-methyl)phenyl)-3-benzyl-4-methyl-2,5-dioxoimidazolidin-1-yl)acetylamino)-2-benzylaminothiocarbonylamino-propionic acid], the IC50 was 10.5 µM.

In the case of `CC(C)[C@H](NC(=O)[C@H](CC(=O)O)N(C)C(=O)CN1C(=O)N(Cc2ccc3ccccc3c2)C(C)(c2ccc(C(=N)N)cc2)C1=O)C(=O)N1CCOCC1` (stereo partly drawn) [Example 5, ((R,S)-4-(4-(Amino-imino-methyl)phenyl)-3-(2-naphthylmethyl)-4-methyl-2,5-dioxoimidazolidin-1-yl)acetyl-L-(N-methylaspartyl)-L-valine morpholide], the half-inhibitory concentration (IC50) was 0.73 µM.

As for `CC1(c2ccc(C(=N)N)cc2)C(=O)N(CC(=O)NC[C@H](NC(=O)OCC23CC4CC(CC(C4)C2)C3)C(=O)O)C(=O)N1Cc1ccccc1` (stereo partly drawn) [Example 1, (S)-3-(((R,S)-4-(4-(Amino-imino-methyl)phenyl)-3-benzyl-4-methyl-2,5-dioxoimidazolidin-1-yl)acetylamino)-2-(1-adamantylmethyloxy-carbonylamino)propionic acid], the concentration for half-maximal inhibition (IC50) was found to be 1.25 µM.

Regarding `CC1(c2ccc(C(=N)N)cc2)C(=O)N(CC(=O)NC[C@H](NC(=O)NCc2ccccc2)C(=O)O)C(=O)N1Cc1ccccc1` (stereo partly drawn) [Example 3, (S)-3-(((R,S)-4-(4-(Amino-imino-methyl)phenyl)-3-benzyl-4-methyl-2,5-dioxoimidazolidin-1-yl)acetylamino)-2-benzylaminocarbonylaminopropionic acid], the concentration for half-maximal inhibition (IC50) is 11.5 µM.
